Source: ChEMBL document CHEMBL1201862, “PubChem BioAssay data set” (2004)
The source made the active and inactive calls.

Legend:
[1] = molecular target: T1, G-protein coupled receptor 35 (Homo sapiens, UniProt Q9HC97); experiment: SAR analysis of Agonists of the GPR35 Receptor using an Image-Based Assay - Set 4. [Related pubchem assays (depositor defined):AID2013, AID2026]; format: functional
Cannabinoid receptor 1 [2] = molecular target: T2, Cannabinoid receptor 1 (Homo sapiens, UniProt P21554); experiment: SAR analysis of agonists of the Cannabinoid Receptor 1 using an Image-Based Assay - Set 4. [Related pubchem assays (depositor defined):AID2013, AID2026]; format: functional
[3] = molecular target: T1, G-protein coupled receptor 35; experiment: SAR analysis of Antagonists of the GPR35 Receptor using an Image-Based Assay - Set 6. [Related pubchem assays (depositor defined):AID2013, AID2026]; format: functional
Cannabinoid receptor 1 [4] = molecular target: T2, Cannabinoid receptor 1; experiment: SAR analysis of antagonists of the Cannabinoid Receptor 1 using an Image-Based Assay - Set 4. [Related pubchem assays (depositor defined):AID2013, AID2026]; format: functional
[5] = molecular target: G-protein coupled receptor 55 (Homo sapiens, UniProt Q9Y2T6); experiment: SAR Analysis of Selective Antagonists of GPR55 using an Image-Based Assay - Set 4. [Related pubchem assays (depositor defined):AID2013, AID2026]; format: functional;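 note: antagonism of response to 5 µM lysophosphatidylinositol agonist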
Cannabinoid receptor 2 [6] = molecular target: T3, Cannabinoid receptor 2 (Homo sapiens, UniProt P34972); experiment: SAR analysis of antagonists of the Cannabinoid Receptor 2 using an Image-Based Assay - Set 3. [Related pubchem assays (depositor defined):AID2013, AID2026]; format: functional
Cannabinoid receptor 2 [7] = molecular target: T3, Cannabinoid receptor 2; experiment: SAR analysis of agonists of the Cannabinoid Receptor 2 using an Image-Based Assay - Set 3. [Related pubchem assays (depositor defined):AID2013, AID2026]; format: functional
Mu-type opioid receptor [8] = molecular target: T4, Mu-type opioid receptor (Homo sapiens, UniProt P35372); experiment: mu opioid receptor activators, image-based, SAR follow-up (AID 2352); format: functional
[9] = molecular target: T5, Delta-type opioid receptor (Homo sapiens, UniProt P41143); experiment: DOR agonists, SAR follow-up, image-based (AID 2370); format: functional
[10] = molecular target: T6, Kappa-type opioid receptor (Homo sapiens, UniProt P41145); experiment: kappa opioid receptor blockers, image-based, SAR follow-up (AID 2348); format: functional
Mu-type opioid receptor [11] = molecular target: T4, Mu-type opioid receptor; experiment: mu opioid receptor blockers – image-based, SAR follow-up (AID 2420); format: functional;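 note: compounds added before stimulation of receptor with agonist DAMGO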
[12] = molecular target: T6, Kappa-type opioid receptor; experiment: kappa opioid receptor activation potency – imaging, image-based, SAR follow-up (AID 2359); format: functional
[13] = molecular target: T5, Delta-type opioid receptor; experiment: delta opioid receptor blockers – image-based, SAR follow-up (AID 2357); format: functional
[14] = molecular target: T6, Kappa-type opioid receptor; experiment: kappa opioid receptor blockers, cell-based, luminescence, beta-arrestin, SAR follow-up (AID 2285); format: functional
SUMO-activating enzyme [15] = molecular target: T7, SUMO-activating enzyme (Homo sapiens, UniProt Q9UBT2); experiment: blockers of UBC9-mediated SUMO conjugation – biochemical, AlphaScreen, SUMOylation inhibitor project, confirmation (AID 2018); format: functional
SUMO-activating enzyme [16] = molecular target: T7, SUMO-activating enzyme; experiment: blockers of SAE1/SAE2–UBC9 SUMO transfer – biochemical, HTRF, uHTS, primary screen (AID 2006); format: protein-complex assay
[17] = Trypanosoma cruzi growth suppression in host cells – NIH3T3 host cells, beta-gal luminescence, confirmation (AID 2044); format: functional, cell-based;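 note: intracellular parasites grown in NIH/3T3 mouse fibroblasts as host cells; luminescent beta-galactosidase reporter signal from transgenic T. cruzi replicating inside host cells; inhibitors lower the luminescence signal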
[18] = NIH3T3 cell viability loss – ATP luminescence, mouse fibroblasts, counter-screen, dose response (AID 2010); format: functional, cell-based;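 note: cells exposed to compound for about 90 hours before reading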
Hexokinase HKDC1 = molecular target: T8, Hexokinase HKDC1 (Homo sapiens, UniProt Q2TB90); experiment: activation of HKDC1 glucose phosphorylation – biochemical, W721R variant, dose response (AID 504730); format: functional
T8 sequence (Q2TB90 whole entry): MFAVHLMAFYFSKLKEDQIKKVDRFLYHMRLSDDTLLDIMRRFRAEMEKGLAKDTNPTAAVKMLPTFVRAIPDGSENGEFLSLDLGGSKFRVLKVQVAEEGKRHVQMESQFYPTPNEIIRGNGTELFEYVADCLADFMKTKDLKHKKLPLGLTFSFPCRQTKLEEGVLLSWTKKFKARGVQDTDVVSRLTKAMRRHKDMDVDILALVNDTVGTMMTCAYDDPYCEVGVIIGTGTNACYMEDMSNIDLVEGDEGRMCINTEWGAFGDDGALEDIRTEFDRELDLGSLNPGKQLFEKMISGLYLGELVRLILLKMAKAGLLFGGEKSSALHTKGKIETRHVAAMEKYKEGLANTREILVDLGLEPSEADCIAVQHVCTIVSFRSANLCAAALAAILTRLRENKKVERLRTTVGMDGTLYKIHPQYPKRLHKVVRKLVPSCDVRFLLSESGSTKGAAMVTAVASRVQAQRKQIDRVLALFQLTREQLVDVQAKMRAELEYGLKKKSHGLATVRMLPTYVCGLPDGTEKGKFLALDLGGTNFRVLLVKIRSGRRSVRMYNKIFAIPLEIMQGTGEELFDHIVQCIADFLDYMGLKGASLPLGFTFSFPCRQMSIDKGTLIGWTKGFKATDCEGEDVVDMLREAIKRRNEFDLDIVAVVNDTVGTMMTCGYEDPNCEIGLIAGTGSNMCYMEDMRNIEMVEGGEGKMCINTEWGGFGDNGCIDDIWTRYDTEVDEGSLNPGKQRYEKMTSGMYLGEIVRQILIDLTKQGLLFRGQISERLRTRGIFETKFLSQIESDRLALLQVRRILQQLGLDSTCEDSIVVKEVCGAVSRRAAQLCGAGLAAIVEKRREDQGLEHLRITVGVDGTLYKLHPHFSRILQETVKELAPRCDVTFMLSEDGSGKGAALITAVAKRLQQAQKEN

Hexokinase-1 = Hexokinase-1 (Homo sapiens, UniProt P19367); experiment: HK1 enzyme activation by HKDC1 hits – biochemical, selectivity assay for HKDC1 activator project, dose response (AID 504762); format: functional
INS1 = experiment: INS-1E survival protection against cytokine death – cell-based, luminescence, retest, dose response (AID 449756); format: functional; conditions: Rattus norvegicus;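 note: cell death triggered by IL-1 beta plus TNF-alpha plus IFN-gamma mixture; protective hits raise ATP signal compared with cytokine alone wells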
Paired box protein Pax-8 = Paired box protein Pax-8 (Homo sapiens, UniProt Q06710); experiment: PAX8 transcriptional activity inhibition in RMG-I – RMG-I cells, luciferase, cherry-pick, dose response (AID 687027); format: functional, cell-based;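 note: luciferase reporter driven by Pax8 target thyroperoxidase promoter measured by SteadyGlo luminescence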
Chain of Paired box protein Pax-8 (Q06710 whole entry): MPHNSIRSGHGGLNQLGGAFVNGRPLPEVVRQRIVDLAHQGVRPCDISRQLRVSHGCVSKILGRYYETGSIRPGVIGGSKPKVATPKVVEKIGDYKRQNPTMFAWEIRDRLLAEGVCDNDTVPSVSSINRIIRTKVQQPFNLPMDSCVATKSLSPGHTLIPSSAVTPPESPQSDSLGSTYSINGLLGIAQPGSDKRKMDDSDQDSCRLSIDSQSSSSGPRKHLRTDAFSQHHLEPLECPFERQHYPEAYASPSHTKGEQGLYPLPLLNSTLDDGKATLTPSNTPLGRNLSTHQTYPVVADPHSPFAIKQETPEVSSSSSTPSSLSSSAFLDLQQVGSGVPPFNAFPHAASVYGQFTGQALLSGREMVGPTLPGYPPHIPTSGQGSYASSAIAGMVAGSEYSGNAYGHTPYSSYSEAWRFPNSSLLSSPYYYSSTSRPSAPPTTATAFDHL

T7 sequence (Q9UBE0 whole entry): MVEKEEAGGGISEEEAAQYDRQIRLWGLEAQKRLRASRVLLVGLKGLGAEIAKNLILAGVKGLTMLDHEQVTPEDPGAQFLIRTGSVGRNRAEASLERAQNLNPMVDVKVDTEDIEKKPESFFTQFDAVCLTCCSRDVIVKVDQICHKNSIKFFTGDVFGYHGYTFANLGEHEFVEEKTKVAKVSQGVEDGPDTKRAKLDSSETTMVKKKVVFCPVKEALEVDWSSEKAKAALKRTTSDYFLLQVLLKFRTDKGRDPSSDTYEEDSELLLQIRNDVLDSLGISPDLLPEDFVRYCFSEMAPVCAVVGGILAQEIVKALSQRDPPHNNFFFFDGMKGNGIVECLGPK
T7 sequence (Q9UBT2 whole entry): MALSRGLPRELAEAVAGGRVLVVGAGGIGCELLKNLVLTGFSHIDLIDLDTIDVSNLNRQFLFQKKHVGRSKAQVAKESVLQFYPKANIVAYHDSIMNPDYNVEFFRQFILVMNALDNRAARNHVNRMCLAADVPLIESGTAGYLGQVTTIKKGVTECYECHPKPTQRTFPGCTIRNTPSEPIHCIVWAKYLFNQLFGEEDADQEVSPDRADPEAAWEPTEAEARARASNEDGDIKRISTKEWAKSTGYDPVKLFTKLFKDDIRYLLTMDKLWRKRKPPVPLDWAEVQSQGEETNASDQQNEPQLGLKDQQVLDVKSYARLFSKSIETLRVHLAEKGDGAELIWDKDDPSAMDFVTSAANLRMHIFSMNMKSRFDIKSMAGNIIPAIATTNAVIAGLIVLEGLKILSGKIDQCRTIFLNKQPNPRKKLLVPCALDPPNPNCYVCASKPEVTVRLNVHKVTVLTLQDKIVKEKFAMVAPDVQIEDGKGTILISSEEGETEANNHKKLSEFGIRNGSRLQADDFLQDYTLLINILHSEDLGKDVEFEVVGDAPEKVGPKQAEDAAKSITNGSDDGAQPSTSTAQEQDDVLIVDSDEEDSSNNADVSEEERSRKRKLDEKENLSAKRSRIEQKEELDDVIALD
T6 sequence (P41145 whole entry): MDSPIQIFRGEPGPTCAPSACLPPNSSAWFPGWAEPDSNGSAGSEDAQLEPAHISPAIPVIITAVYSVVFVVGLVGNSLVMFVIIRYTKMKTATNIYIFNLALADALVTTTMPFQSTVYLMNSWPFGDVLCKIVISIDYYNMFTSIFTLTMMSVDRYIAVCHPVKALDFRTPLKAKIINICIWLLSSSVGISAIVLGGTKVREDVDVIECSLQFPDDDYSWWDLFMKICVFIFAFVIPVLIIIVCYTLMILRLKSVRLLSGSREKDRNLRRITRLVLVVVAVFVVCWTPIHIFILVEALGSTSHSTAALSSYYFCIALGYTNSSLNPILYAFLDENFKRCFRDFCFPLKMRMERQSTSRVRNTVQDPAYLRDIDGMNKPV
T2 sequence (P21554 whole entry): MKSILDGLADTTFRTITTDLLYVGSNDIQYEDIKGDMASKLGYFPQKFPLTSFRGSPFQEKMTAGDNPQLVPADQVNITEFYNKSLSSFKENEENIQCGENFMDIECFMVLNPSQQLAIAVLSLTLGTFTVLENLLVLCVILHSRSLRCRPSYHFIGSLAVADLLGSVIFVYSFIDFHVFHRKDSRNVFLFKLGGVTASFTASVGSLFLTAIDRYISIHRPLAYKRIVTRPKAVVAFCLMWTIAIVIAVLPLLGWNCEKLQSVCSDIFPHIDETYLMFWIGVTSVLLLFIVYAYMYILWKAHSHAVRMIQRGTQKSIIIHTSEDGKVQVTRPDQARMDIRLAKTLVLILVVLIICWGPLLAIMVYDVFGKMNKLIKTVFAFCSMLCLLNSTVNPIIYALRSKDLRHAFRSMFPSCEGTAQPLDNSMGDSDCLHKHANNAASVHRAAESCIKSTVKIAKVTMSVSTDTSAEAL
T5 sequence (P41143 whole entry): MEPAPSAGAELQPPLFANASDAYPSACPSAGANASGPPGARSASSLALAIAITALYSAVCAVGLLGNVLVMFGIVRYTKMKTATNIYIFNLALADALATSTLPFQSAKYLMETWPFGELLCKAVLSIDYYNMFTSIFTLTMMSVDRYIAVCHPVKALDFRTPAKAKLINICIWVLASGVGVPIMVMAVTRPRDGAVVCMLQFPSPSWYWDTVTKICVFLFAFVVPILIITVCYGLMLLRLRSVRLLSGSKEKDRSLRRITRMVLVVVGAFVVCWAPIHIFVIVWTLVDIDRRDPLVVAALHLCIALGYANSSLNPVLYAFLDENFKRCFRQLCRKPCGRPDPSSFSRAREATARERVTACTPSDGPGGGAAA
T3 sequence (P34972 whole entry): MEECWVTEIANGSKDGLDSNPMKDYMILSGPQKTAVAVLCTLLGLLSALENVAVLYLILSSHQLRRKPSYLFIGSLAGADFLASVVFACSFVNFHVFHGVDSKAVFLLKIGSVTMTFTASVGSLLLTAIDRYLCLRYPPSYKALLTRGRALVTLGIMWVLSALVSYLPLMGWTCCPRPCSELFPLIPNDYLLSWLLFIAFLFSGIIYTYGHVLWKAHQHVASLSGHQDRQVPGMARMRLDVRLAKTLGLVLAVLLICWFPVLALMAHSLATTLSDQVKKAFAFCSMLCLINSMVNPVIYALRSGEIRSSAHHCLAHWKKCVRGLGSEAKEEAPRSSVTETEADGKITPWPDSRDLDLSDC
T1 sequence (Q9HC97 whole entry): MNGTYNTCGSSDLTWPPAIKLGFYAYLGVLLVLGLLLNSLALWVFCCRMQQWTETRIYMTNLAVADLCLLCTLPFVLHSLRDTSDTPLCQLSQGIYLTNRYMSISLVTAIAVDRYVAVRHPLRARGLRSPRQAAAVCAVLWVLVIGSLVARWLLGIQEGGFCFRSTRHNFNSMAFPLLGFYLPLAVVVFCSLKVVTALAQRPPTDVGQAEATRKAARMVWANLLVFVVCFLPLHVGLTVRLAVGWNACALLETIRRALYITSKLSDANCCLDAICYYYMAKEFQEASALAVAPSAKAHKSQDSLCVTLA
T4 sequence (P35372 whole entry): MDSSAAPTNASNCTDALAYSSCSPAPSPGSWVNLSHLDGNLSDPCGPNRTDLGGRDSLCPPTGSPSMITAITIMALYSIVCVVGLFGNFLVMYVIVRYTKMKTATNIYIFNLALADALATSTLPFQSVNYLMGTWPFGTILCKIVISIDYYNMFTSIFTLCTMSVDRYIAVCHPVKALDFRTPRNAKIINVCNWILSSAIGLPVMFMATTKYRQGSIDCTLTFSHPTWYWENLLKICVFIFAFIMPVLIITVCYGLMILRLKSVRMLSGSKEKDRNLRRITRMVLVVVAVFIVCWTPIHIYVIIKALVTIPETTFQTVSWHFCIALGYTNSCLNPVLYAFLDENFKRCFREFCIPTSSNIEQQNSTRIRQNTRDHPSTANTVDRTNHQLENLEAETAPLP
Chain of Hexokinase-1 (P19367 whole entry): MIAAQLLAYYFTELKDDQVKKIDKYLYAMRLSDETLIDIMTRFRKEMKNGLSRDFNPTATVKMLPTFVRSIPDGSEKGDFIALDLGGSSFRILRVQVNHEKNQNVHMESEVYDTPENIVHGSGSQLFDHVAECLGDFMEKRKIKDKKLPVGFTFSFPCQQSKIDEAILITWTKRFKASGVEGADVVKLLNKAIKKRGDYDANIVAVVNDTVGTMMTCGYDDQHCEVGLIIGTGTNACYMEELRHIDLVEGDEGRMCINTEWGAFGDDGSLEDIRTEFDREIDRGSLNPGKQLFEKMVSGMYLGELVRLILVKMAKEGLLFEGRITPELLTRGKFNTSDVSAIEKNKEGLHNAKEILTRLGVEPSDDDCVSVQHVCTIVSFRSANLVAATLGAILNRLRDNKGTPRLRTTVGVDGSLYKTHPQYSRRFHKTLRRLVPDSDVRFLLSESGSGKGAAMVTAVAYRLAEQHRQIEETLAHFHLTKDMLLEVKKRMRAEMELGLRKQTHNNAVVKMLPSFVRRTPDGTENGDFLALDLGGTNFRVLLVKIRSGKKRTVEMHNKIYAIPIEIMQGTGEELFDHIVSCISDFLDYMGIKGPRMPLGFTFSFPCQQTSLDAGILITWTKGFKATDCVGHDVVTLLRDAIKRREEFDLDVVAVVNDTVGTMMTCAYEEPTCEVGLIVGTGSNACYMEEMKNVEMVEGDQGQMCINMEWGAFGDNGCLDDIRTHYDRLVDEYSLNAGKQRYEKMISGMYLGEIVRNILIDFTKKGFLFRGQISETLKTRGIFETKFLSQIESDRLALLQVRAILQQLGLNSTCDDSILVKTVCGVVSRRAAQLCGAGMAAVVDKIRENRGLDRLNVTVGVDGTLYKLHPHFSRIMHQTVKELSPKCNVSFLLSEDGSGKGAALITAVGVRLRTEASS
Chain of G-protein coupled receptor 55 (Q9Y2T6 whole entry): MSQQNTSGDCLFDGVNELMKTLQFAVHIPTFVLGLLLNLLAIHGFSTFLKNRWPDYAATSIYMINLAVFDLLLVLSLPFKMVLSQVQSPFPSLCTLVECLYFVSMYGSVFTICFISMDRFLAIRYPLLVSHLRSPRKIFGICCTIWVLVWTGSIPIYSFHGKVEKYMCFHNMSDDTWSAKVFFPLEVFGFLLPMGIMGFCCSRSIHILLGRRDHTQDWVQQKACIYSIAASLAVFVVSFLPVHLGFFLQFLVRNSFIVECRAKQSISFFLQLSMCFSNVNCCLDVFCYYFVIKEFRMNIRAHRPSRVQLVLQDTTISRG

Structure (SMILES): Cc1ccc(C(C)C(=O)N2CCC(n3nc(-c4ccccc4)oc3=O)CC2)cc1 (centres undefined)
- EC50 [1]: > 32 µM (inactive)
- EC50 (Cannabinoid receptor 1 [2]): > 32 µM (inactive)
- IC50 [3]: > 32 µM (inactive)
- IC50 (Cannabinoid receptor 1 [4]): 3.31 µM (active)
- IC50 [5]: 7.6 µM (active)
- IC50 (Cannabinoid receptor 2 [6]): 22.9 µM (inactive)
- EC50 (Cannabinoid receptor 2 [7]): > 32 µM (inactive)

Structure (SMILES): CC(=O)Nc1ccc(S(=O)(=O)NCc2ccc(C(=O)NCCN(C)Cc3ccccc3)cc2)cc1
- EC50 (Mu-type opioid receptor [8]): > 32 µM (inactive)
- EC50 [9]: > 32 µM (inactive)
- IC50 [10]: > 32 µM (inactive)
- IC50 (Mu-type opioid receptor [11]): > 32 µM (inactive)
- EC50 [12]: > 32 µM (inactive)
- IC50 [13]: > 32 µM (inactive)
- IC50 [14]: > 10 µM (inactive)

Structure (SMILES): Sc1nnc(-c2ccncc2)n1/N=C/c1cn(-c2ccccc2)nc1-c1ccc(Cl)cc1
- IC50 (SUMO-activating enzyme [15]): 3.28 µM (active)
- IC50 (SUMO-activating enzyme [16]): 28.8 µM (active)

Structure (SMILES): O=C(/C=C/c1ccco1)NC(=S)Nc1ccc(O)c(-c2nc3ccccc3s2)c1
- IC50 (SUMO-activating enzyme [15]): 12.1 µM (active)
- IC50 (SUMO-activating enzyme [16]): 18 µM (active)

Structure (SMILES): COc1ccc(C2=NN=C(Nc3cc(S(=O)(=O)N(C)C)ccc3C)SC2)c(OC)c1
- EC50 [17]: 3.57 µM (active)
- EC50 [18]: 5.85 µM (active)
- EC50 (Hexokinase HKDC1): 18.5 µM (active)
- EC50 (Hexokinase-1): 17.4 µM (active)
- AC50 (INS1): 5.48 µM (active)
- AC50 (Paired box protein Pax-8): 6.77 µM (active)
